Laboratory results published in ChEMBL document CHEMBL5380777, “Efficacy, Mechanism, and Structure-Activity Relationship of 6-Methoxy Benzofuran Derivatives as a Useful Tool for Senile Osteoporosis” (J Med Chem, 2023).
Activity calls are given as the source filed them. The rule behind the calls is not given here.

Key:
[1] = test system: Mus musculus; test: Anti osteoporosis in 16 months old C57 mouse assessed as T cell level in femur administered at 30 mg/kg/day, IG continuously for 4 months by scRNA-seq analysis (reference value: 10.54%); assay type: functional; conditions: 2920 h
[2] = Toxicity in 2.5 months old SAMP-6 rapid aging mouse model assessed as change in serum AST level administered at 30 mg/kg/day, IG continuously for 3 months in presence of ALN; assay type: organism-based; conditions: in vivo, po, 2190 h
[3] = Toxicity in 2.5 months old SAMP-6 rapid aging mouse model assessed as change in creatinine level administered at 30 mg/kg/day, IG continuously for 3 months; assay type: organism-based; conditions: in vivo, po, 2190 h
[4] = test system: Osteoblast; test: Upregulation of transcription factor XBP1 expression in 16 months old C57 mouse osteoblast by scRNA-seq analysis; assay type: functional, cell-based
[5] = test system: MC3T3-E1; test: Induction of ALP activity in mouse MC3T3-E1 cells in osteogenic differentiation culture at 1 uM measured on day 7; assay type: functional, cell-based; conditions: time 7.0 day
[6] = Toxicity in 2.5 months old SAMP-6 rapid aging mouse model assessed as change in serum AST level administered at 30 mg/kg/day, IG continuously for 3 months; assay type: organism-based; conditions: in vivo, po, 2190 h
[7] = test system: Osteoblast; test: Regulation of osteogenesis in 16 months old C57 mouse osteoblast endoplasmic reticulum assessed as increase in Hsp90aa1 gene by scRNA-seq analysis; assay type: functional, cell-based
[8] = test system: Osteoblast; test: Upregulation of transcription factor JUND expression in 16 months old C57 mouse osteoblast by scRNA-seq analysis; assay type: functional, cell-based
[9] = test system: Osteoblast; test: Upregulation of transcription factor MYC expression in 16 months old C57 mouse osteoblast by scRNA-seq analysis; assay type: functional, cell-based
[10] = Toxicity in 2.5 months old SAMP-6 rapid aging mouse model assessed as change in body weight administered at 30 mg/kg/day, IG continuously for 3 months; assay type: organism-based; conditions: in vivo, po, 2190 h
[11] = Toxicity in 16 months old C57 mouse assessed as change in total protein level administered at 30 mg/kg/day, IG continuously for 4 months; assay type: organism-based; conditions: in vivo, po, 2920 h
[12] = test system: Mus musculus; test: Anti osteoporosis in 16 months old C57 mouse assessed as fold increase in chondrocytes level in femur administered at 30 mg/kg/day, IG continuously for 4 months by scRNA-seq analysis relative to control; assay type: functional; conditions: 2920 h
[13] = test system: Osteoclast; test: Upregulation of BMP-2 expression in 16 months old C57 mouse osteoclast by scRNA-seq analysis; assay type: functional, cell-based
[14] = test system: Mus musculus; test: Anti osteoporosis in 16 months old C57 mouse assessed as increase in bone mass administered at 30 mg/kg/day, IG continuously for 4 months by micro CT analysis relative to aged control group; assay type: functional, organism-based
[15] = test system: Mus musculus; test: Anti osteoporosis in 16 months old C57 mouse assessed as osteoclast level in femur administered at 30 mg/kg/day, IG continuously for 4 months by scRNA-seq analysis (reference value: 6.52%); assay type: functional; conditions: 2920 h
[16] = test system: Osteoblast; test: Upregulation of transcription factor H1F0 expression in 16 months old C57 mouse osteoblast by scRNA-seq analysis; assay type: functional, cell-based
[17] = test system: Osteoblast; test: Upregulation of transcription factor MKRN1 expression in 16 months old C57 mouse osteoblast by scRNA-seq analysis; assay type: functional, cell-based
[18] = test system: Mus musculus; test: Anti osteoporosis in 16 months old C57 mouse assessed as osteoblast level in femur administered at 30 mg/kg/day, IG continuously for 4 months by scRNA-seq analysis (reference value: 5.05%); assay type: functional; conditions: 2920 h
[19] = Toxicity in 2.5 months old SAMP-6 rapid aging mouse model assessed as change in urea level administered at 30 mg/kg/day, IG continuously for 3 months; assay type: organism-based; conditions: in vivo, po, 2190 h
[20] = Acute toxicity in wildtype 3 days post-fertilization AB zebrafish at more than 10 uM; parameters: species or system Danio rerio; conditions: in vivo, 72 h
[21] = test system: Osteoblast; test: Upregulation of transcription factor […] expression in 16 months old C57 mouse osteoblast by scRNA-seq analysis; assay type: functional, cell-based
[22] = test system: Mus musculus; test: Anti osteoporosis in 2.5 months old SAMP-6 rapid aging mouse model assessed as increase in bone mass administered at 30 mg/kg/day, IG continuously for 3 months in presence of ALN by micro CT analysis; assay type: functional, organism-based
[23] = Toxicity in 2.5 months old SAMP-6 rapid aging mouse model assessed as morphological change in liver administered at 30 mg/kg/day, IG continuously for 3 months in presence of ALN by hematoxylin and eosin staining analysis; assay type: organism-based; conditions: in vivo, po, 2190 h
[24] = test system: Osteoblast; test: Regulation of osteogenesis in 16 months old C57 mouse osteoblast endoplasmic reticulum assessed as increase in Hspa8 gene by scRNA-seq analysis; assay type: functional, cell-based
[25] = Toxicity in 2.5 months old SAMP-6 rapid aging mouse model assessed as morphological change in kidney administered at 30 mg/kg/day, IG continuously for 3 months by hematoxylin and eosin staining analysis; assay type: organism-based; conditions: in vivo, po, 2190 h
[26] = Toxicity in 2.5 months old SAMP-6 rapid aging mouse model assessed as change in triglyceride level administered at 30 mg/kg/day, IG continuously for 3 months; assay type: organism-based; conditions: in vivo, po, 2190 h
[27] = test system: Mus musculus; test: Anti osteoporosis in 16 months old C57 mouse assessed as fold increase in osteoclast level in femur administered at 30 mg/kg/day, IG continuously for 4 months by scRNA-seq analysis relative to control; assay type: functional; conditions: 2920 h
[28] = test system: Mus musculus; test: Anti osteoporosis in 16 months old C57 mouse assessed as proliferating granulocyte level in femur administered at 30 mg/kg/day, IG continuously for 4 months by scRNA-seq analysis (reference value: 6.29%); assay type: functional; conditions: 2920 h
[29] = test system: Mus musculus; test: Anti osteoporosis in 16 months old C57 mouse assessed as endothelial cell level in femur administered at 30 mg/kg/day, IG continuously for 4 months by scRNA-seq analysis (reference value: 2.34%); assay type: functional; conditions: 2920 h
[30] = Toxicity in 2.5 months old SAMP-6 rapid aging mouse model assessed as change in ALP level administered at 30 mg/kg/day, IG continuously for 3 months in presence of ALN; assay type: organism-based; conditions: in vivo, po, 2190 h
[31] = test system: Mus musculus; test: Anti osteoporosis in 16 months old C57 mouse assessed as increase in bone mass administered at 30 mg/kg/day, IG continuously for 4 months by micro CT analysis relative to young control group; assay type: functional, organism-based
[32] = Toxicity in 2.5 months old SAMP-6 rapid aging mouse model assessed as change in ALP level administered at 30 mg/kg/day, IG continuously for 3 months; assay type: organism-based; conditions: in vivo, po, 2190 h
[33] = Toxicity in 2.5 months old SAMP-6 rapid aging mouse model assessed as change in body weight administered at 30 mg/kg/day, IG in presence of ALN continuously for 3 months; assay type: organism-based; conditions: in vivo, po, 2190 h
[34] = test system: Mus musculus; test: Anti osteoporosis in 16 months old C57 mouse assessed as increase in bone mass in femur from proximal end to the distal end administered at 30 mg/kg/day, IG continuously for 2 to 4 months by micro CT analysis relative to aged control group; assay type: functional, organism-based; conditions: time 2-4 months
[35] = test system: Mus musculus; test: Anti osteoporosis in 16 months old C57 mouse assessed as increase in bone mass administered at 30 mg/kg/day, IG continuously for 2 months by micro CT analysis relative to aged control group; assay type: functional, organism-based
[36] = test system: Mus musculus; test: Anti osteoporosis in 16 months old C57 mouse assessed as reconstruction of bone microstructure administered at 30 mg/kg/day, IG continuously for 4 months by micro CT analysis relative to aged control group; assay type: functional, organism-based
[37] = Toxicity in 2.5 months old SAMP-6 rapid aging mouse model assessed as change in triglyceride level administered at 30 mg/kg/day, IG continuously for 3 months in presence of ALN; assay type: organism-based; conditions: in vivo, po, 2190 h

SMILES: COc1ccc2cc(C(=O)NCCN(C)C)oc2c1.CS(=O)(=O)O
- Activity [1]: 8.96%
- Activity [2]: Non-Toxic
- Activity [3]: Non-Toxic
- Activity [4]: Active
- Activity [5]: Active
- Activity [6]: Non-Toxic
- Activity [7]: Active
- Activity [8]: Active
- Activity [9]: Active
- Activity [10]: Non-Toxic
- Activity [11]: Non-Toxic
- fold change (FC) [12]: 2
- Activity [13]: Active
- Activity [14]: Active
- Activity [15]: 12.12%
- Activity [16]: Active
- Activity [17]: Active
- Activity [18]: 15.03%
- Activity [19]: Non-Toxic
- Activity [20]: Toxic
- Activity [21]: Active
- Activity [22]: Active
- Activity [23]: Non-Toxic
- Activity [24]: Active
- Activity [25]: Non-Toxic
- Activity [26]: Non-Toxic
- fold change (FC) [27]: 3
- Activity [28]: 4.71%
- Activity [29]: 2.38%
- Activity [30]: Non-Toxic
- Activity [31]: Active
- Activity [32]: Non-Toxic
- Activity [33]: Non-Toxic
- Activity [34]: Active
- Activity [35]: inactive
- Activity [36]: Active
- Activity [37]: Non-Toxic
